In PubChem BioAssay (NCI) one finds GI50 and TGI data, which are given here for five compounds.

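Five concentrations, 48 hours, 96-well plates. GI50 marks 50% less growth. The concentration for full growth arrest is given as TGI.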

Among the test systems are SNB-19 CNS; OVCAR-3 ovarian; PC-3 prostate; SF-295 CNS; A498 renal; HCC-2998 colon; SF-539 CNS; UO-31 renal; UACC-62 melanoma; 786-0 renal.
Holding throughout (experiment): NCI anticancer screen, dose series, 48 h

Turning to `CCN(CC)CCN1c2nc3ccccc3cc2Sc2cc3ccccc3nc21`, the GI50 is 3030 nM in the assay with SNB-19 CNS; 1850 nM in the assay on OVCAR-3 ovarian; 1710 nM with PC-3 prostate; 1560 nM in the assay on SF-295 CNS; 3080 nM in the assay on A498 renal; 1690 nM in the assay with HCC-2998 colon. Further, the GI50 in the assay on SF-539 CNS was 1600 nM; in the assay on UO-31 renal, 970 nM; in the assay on UACC-62 melanoma it was 1770 nM; in the assay on 786-0 renal it was 2170 nM. Further, the TGI was 11900 nM in the assay on SNB-19 CNS; 4900 nM in the assay on OVCAR-3 ovarian; 4840 nM in the assay on PC-3 prostate; 3450 nM with SF-295 CNS; 8620 nM with A498 renal; 3720 nM in the assay on HCC-2998 colon. Moreover, the TGI came to 3160 nM in the assay with SF-539 CNS, 5090 nM in the assay on UO-31 renal, 4370 nM in the assay with UACC-62 melanoma and 4640 nM with 786-0 renal.

`O=C(NCCOCCOCCOCCNC(=O)c1cc2c(o1)C(=O)c1ccccc1C2=O)NC12CC3CC(CC(C3)C1)C2`: the GI50 in the assay on SNB-19 CNS was 2060 nM; in the assay with OVCAR-3 ovarian, 1410 nM; with PC-3 prostate, 1950 nM; in the assay on SF-295 CNS, 1650 nM; in the assay with A498 renal it was 1690 nM; with HCC-2998 colon it was 1990 nM. Also, the GI50 in the assay on SF-539 CNS was 1590 nM; with UO-31 renal, 1690 nM; in the assay with UACC-62 melanoma, 571 nM; in the assay with 786-0 renal, 2890 nM. In addition, the TGI with SNB-19 CNS is 8030 nM; in the assay with OVCAR-3 ovarian, 4400 nM; with PC-3 prostate, 13400 nM; with SF-295 CNS it was 3070 nM; in the assay on A498 renal it was 3300 nM; in the assay on HCC-2998 colon, 4020 nM. Also, the TGI with SF-539 CNS stood at 3160 nM; with UO-31 renal it was 3770 nM; with UACC-62 melanoma, 1920 nM; in the assay on 786-0 renal, 11000 nM.

For the compound `COc1ccc(C(=O)c2cc3c(N)c(C(=O)Nc4cccc(Br)c4C)sc3nc2C)cc1`, the GI50 is 54.1 nM in the assay with SNB-19 CNS; 39.4 nM in the assay with OVCAR-3 ovarian; 62.4 nM with PC-3 prostate; 40.5 nM in the assay on SF-295 CNS; 23.8 nM in the assay with A498 renal; 302 nM in the assay with HCC-2998 colon. Further, the GI50 is 25.6 nM in the assay on SF-539 CNS, 219 nM with UO-31 renal, 45.6 nM with UACC-62 melanoma and 61.6 nM in the assay with 786-0 renal. Besides, the TGI is > 100000 nM with SNB-19 CNS; 1050 nM with OVCAR-3 ovarian; > 100000 nM with PC-3 prostate; 260 nM in the assay with A498 renal; > 100000 nM in the assay with HCC-2998 colon; 80.9 nM in the assay on SF-539 CNS. Besides, the TGI in the assay on UO-31 renal, in the assay on UACC-62 melanoma and in the assay on 786-0 renal was > 100000 nM in each case.

For `COc1ccc2c(O)c(/C=C3\N=Nc4ncccc43)oc2c1C[C@@H]1CCNC[C@H]1F`, the GI50 in the assay with SNB-19 CNS is 541 nM; in the assay on OVCAR-3 ovarian, 485 nM; in the assay with PC-3 prostate it was 530 nM; in the assay on SF-295 CNS it was 723 nM; with A498 renal, 1390 nM; in the assay with HCC-2998 colon it was 1670 nM. For the same compound, the GI50 was 428 nM with SF-539 CNS, 1610 nM in the assay with UO-31 renal, 1320 nM in the assay with UACC-62 melanoma and 362 nM in the assay on 786-0 renal. Moreover, the TGI came to 7590 nM in the assay on SNB-19 CNS; 2740 nM in the assay on OVCAR-3 ovarian; 3620 nM in the assay with PC-3 prostate; 4030 nM with SF-295 CNS; 3660 nM in the assay with A498 renal; 4090 nM in the assay on HCC-2998 colon. For the same compound, the TGI was 1990 nM in the assay with SF-539 CNS, 5180 nM with UO-31 renal, 3790 nM with UACC-62 melanoma and 1590 nM with 786-0 renal.

For the compound `[N-]=[N+]=NCCCn1c2c(c3ccc([N+](=O)[O-])cc3c1=O)C(=O)c1cc(-c3ccccc3)ccc1-2`, the GI50 in the assay with SNB-19 CNS, in the assay with OVCAR-3 ovarian, with PC-3 prostate, in the assay with SF-295 CNS, in the assay with A498 renal and in the assay on HCC-2998 colon was > 100000 nM throughout. For the same compound, the GI50 in the assay with SF-539 CNS, in the assay with UO-31 renal, in the assay on UACC-62 melanoma and with 786-0 renal was > 100000 nM in each case. Also, the TGI in the assay on SNB-19 CNS, in the assay with OVCAR-3 ovarian, in the assay on PC-3 prostate, with SF-295 CNS, with A498 renal and with HCC-2998 colon was > 100000 nM each time. Further, the TGI with SF-539 CNS, with UO-31 renal, in the assay with UACC-62 melanoma and with 786-0 renal was > 100000 nM in each case.
